# System: aortal, smooth vascular muscle cells
# Assay: inhibition of the growth of aortal, smooth vascular muscle cells
# Format: cell-based, human
# Conditions: pharmacologically active even in the smallest concentrations of active substance
# Procedure: This effect already occurs starting at 1 to 100 nM, preferably 5 to 50 nM, so that already extremely low local concentrations are sufficient for an effective inhibition of restenosis in the region of an implant. This virtually precludes broader side-effects.
smiles,measurement,value
C/C=C/[C@@H]1O[C@H]([C@H](O)/C=C/C=C(\C)C[C@@H](C)/C=C(C)\C=C\[C@H]2CC=CC(=O)O2)C[C@@H](O)[C@@H]1C [Ratjadone],potency in first experiments,particularly potent

# Source: patent US20070020306A1, “Endovascular implant with an at least sectional active coating made of radjadone and/or a ratjadone derivative” (priority 2003, published 2007)
